Laboratory results as given in ChEMBL document CHEMBL1132874, “Synthesis and structure-activity relationship of novel pyridyl ethers for the nicotinic acetylcholine receptor” (Bioorg Med Chem Lett, 2000).

Each compound was assayed against Neuronal acetylcholine receptor; alpha4/beta2 (Rattus norvegicus, UniProt P09483+P12390) (assay: Evaluated for binding affinity towards nicotinic acetylcholine receptor alpha4-beta2).
Format: protein-complex assay

Chain of Neuronal acetylcholine receptor; alpha4/beta2 (P09483 whole entry): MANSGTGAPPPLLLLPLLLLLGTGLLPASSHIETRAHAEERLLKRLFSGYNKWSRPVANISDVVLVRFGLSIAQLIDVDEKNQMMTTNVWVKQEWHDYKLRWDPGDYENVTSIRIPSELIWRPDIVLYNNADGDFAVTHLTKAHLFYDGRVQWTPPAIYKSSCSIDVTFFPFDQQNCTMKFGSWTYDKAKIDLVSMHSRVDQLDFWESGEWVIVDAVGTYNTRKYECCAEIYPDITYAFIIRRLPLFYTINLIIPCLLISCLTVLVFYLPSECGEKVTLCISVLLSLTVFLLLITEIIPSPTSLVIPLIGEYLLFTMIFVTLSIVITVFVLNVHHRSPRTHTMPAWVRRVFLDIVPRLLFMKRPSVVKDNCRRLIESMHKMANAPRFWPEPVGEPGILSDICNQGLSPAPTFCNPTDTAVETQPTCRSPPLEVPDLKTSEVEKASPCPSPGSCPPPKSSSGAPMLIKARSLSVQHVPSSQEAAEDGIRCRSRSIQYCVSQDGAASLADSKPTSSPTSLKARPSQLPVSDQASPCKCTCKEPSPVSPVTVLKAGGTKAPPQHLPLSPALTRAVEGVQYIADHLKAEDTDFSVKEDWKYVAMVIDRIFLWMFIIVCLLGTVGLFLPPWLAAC
Chain of Neuronal acetylcholine receptor; alpha4/beta2 (P12390 whole entry): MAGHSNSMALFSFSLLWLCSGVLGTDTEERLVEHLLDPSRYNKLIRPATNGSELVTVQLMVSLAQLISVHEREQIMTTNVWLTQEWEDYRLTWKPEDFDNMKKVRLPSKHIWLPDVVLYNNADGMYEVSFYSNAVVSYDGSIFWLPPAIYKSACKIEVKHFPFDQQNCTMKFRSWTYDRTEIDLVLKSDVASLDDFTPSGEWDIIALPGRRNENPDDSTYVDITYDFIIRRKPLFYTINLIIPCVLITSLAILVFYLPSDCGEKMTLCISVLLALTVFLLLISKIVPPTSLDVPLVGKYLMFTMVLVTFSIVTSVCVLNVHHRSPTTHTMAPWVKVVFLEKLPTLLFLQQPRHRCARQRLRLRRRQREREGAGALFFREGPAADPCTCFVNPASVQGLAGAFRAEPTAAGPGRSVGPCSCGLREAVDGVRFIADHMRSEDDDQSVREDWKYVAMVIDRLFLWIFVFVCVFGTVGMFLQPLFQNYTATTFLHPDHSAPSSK

SMILES	IC50
Clc1ncc(O[C@@H]2CCNC2)cc1-c1ccccc1	75 nM
c1cncc(OC2CNC2)c1	> 10000 nM
C=Cc1cc(O[C@@H]2CCNC2)cnc1Cl	140 nM
C#Cc1cncc(O[C@@H]2CCNC2)c1	62 nM
Cc1cc(O[C@@H]2CCNC2)cnc1Cl	64 nM
c1ccc(-c2cncc(O[C@@H]3CCNC3)c2)cc1	1820 nM
C=Cc1cncc(O[C@@H]2CCNC2)c1	883 nM
CCN1CCC(Oc2cccnc2)C1 (stereo not given)	> 10000 nM
Clc1cccc(-c2cncc(O[C@@H]3CCNC3)c2)c1	940 nM
CC(C)N1CCC(Oc2cccnc2)C1 (stereo not given)	> 10000 nM
N#Cc1ccc(-c2cncc(O[C@@H]3CCNC3)c2)cc1	544 nM
Clc1cccc(-c2cc(O[C@@H]3CCNC3)cnc2Cl)c1	103 nM
Clc1ncc(O[C@@H]2CCNC2)cc1-c1ccncc1	65 nM
C#Cc1cc(O[C@@H]2CCNC2)cnc1Cl	46 nM
c1cc(-c2cncc(O[C@@H]3CCNC3)c2)ccn1	571 nM
